From ChEMBL document CHEMBL3352389, “Evaluation of class I HDAC isoform selectivity of largazole analogues” (Bioorg Med Chem Lett, 2014)

Columns and labels:
Histone deacetylase 2 = Histone deacetylase 2 (Homo sapiens, UniProt Q92769); assay: Inhibition of HDAC2 (unknown origin) incubated at 37 degC for 30 mins
Histone deacetylase 3 = Histone deacetylase 3 (Homo sapiens, UniProt O15379); assay: Inhibition of HDAC3 (unknown origin) incubated at 37 degC for 30 mins
Histone deacetylase 1 = Histone deacetylase 1 (Homo sapiens, UniProt Q13547); assay: Inhibition of HDAC1 (unknown origin) incubated at 37 degC for 30 mins
Histone deacetylase 1, sequence (Q13547 whole entry): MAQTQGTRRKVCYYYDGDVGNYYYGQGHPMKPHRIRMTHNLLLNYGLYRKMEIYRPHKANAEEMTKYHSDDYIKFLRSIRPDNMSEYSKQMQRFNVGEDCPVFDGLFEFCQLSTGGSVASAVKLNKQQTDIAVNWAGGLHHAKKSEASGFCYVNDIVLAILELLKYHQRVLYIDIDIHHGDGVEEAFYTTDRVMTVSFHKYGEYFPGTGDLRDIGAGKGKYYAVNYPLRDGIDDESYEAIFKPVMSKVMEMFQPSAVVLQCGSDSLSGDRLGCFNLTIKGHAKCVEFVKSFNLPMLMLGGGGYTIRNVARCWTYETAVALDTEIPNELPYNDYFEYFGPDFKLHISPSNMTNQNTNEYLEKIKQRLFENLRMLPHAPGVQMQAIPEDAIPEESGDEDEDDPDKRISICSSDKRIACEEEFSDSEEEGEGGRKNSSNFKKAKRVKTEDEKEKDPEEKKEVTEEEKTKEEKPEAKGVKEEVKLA

Histone deacetylase 8 = molecular target: T1, Histone deacetylase 8 (Homo sapiens, UniProt Q9BY41); assay: Inhibition of HDAC8 (unknown origin) incubated at 37 degC for 30 mins
T1 sequence (Q9BY41 whole entry): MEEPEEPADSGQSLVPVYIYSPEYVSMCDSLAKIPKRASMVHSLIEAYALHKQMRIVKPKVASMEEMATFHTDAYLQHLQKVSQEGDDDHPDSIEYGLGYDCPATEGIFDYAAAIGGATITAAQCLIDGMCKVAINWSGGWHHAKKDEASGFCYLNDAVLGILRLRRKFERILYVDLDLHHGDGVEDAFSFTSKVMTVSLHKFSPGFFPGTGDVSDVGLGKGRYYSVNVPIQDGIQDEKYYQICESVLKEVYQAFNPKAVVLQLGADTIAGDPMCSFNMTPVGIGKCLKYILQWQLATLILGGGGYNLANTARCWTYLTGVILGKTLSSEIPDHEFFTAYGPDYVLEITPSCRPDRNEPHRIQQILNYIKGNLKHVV

Histone deacetylase 3, sequence (O15379 whole entry): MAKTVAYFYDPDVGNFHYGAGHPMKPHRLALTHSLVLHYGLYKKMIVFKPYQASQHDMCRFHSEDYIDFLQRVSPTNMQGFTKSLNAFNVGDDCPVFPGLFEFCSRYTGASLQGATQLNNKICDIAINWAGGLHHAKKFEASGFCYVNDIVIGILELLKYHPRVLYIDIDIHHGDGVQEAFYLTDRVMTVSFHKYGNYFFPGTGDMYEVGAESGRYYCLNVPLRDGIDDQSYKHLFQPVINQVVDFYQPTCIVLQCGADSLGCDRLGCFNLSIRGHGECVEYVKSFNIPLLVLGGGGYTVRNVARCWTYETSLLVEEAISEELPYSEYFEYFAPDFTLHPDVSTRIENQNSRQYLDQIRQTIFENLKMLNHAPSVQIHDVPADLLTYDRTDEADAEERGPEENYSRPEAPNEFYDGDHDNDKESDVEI
Histone deacetylase 2, sequence (Q92769 whole entry): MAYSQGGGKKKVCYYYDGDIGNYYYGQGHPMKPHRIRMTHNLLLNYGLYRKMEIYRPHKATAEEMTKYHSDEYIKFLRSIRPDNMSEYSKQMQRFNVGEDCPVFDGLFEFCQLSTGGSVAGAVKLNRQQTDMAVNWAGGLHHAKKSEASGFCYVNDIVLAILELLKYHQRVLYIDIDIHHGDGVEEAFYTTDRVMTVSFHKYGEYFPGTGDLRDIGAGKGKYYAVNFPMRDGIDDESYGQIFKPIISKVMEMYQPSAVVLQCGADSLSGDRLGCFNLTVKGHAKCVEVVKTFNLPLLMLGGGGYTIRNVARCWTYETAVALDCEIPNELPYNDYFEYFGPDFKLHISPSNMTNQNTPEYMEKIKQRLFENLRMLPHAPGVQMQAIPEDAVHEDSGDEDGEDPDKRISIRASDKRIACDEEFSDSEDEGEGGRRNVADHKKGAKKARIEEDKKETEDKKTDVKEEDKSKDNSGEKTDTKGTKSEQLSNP

SMILES | IC50 (Histone deacetylase 2) [nM] | IC50 (Histone deacetylase 3) [nM] | IC50 (Histone deacetylase 1) [nM] | IC50 (Histone deacetylase 8; read-out: IC50) [nM] | IC50 (Histone deacetylase 8)
CC(C)(C)OC(=O)NCCC[C@@H]1NC(=O)[C@]2(C)CSC(=N2)c2csc(n2)CNC(=O)C[C@@H](/C=C/CCS)OC1=O | 1.4 | 1.8 | 0.96 | 790 | 
C[C@@]12CSC(=N1)c1csc(n1)CNC(=O)C[C@@H](/C=C/CCS)OC(=O)[C@H](Cc1ccc(O)cc1)NC2=O | 1.1 | 0.38 | 0.21 |  | Not Active
C[C@@]12CSC(=N1)c1csc(n1)CNC(=O)C[C@@H](/C=C/CCS)OC(=O)[C@H](CCN)NC2=O | 21 | 7.8 | 5.5 |  | Not Active
CC(C)(C)OC(=O)NCC[C@@H]1NC(=O)[C@]2(C)CSC(=N2)c2csc(n2)CNC(=O)C[C@@H](/C=C/CCS)OC1=O | 3.1 | 4.2 | 2.3 |  | Not Active
C[C@@]12CSC(=N1)c1csc(n1)CNC(=O)C[C@@H](/C=C/CCS)OC(=O)[C@H](CCCN)NC2=O | 6.3 | 6 | 3.3 |  | Not Active
C[C@@]12CSC(=N1)c1csc(n1)CNC(=O)C[C@@H](/C=C/CCS)OC(=O)[C@H](Cc1ccccc1)NC2=O | 1.7 | 0.68 | 0.29 |  | Not Active

Now from value to compound:

IC50 (Histone deacetylase 2) [nM] | IC50 (Histone deacetylase 3) [nM] | IC50 (Histone deacetylase 1) [nM] | IC50 (Histone deacetylase 8; read-out: IC50) [nM] | IC50 (Histone deacetylase 8) | SMILES
150 | 100 | 39 |  | Not Active | C[C@@]12CSC(=N1)c1csc(n1)CNC(=O)C[C@@H](/C=C/CCS)OC(=O)[C@H](CC(=O)O)NC2=O
 |  | 0.62 | 540 |  | CC(C)(C)OC(=O)n1cnc(C[C@@H]2NC(=O)[C@]3(C)CSC(=N3)c3csc(n3)CNC(=O)C[C@@H](/C=C/CCS)OC2=O)c1
1.4 | 1.1 | 0.2 |  | Not Active | C[C@@]12CSC(=N1)c1csc(n1)CNC(=O)C[C@@H](/C=C/CCS)OC(=O)[C@H](Cc1c[nH]cn1)NC2=O
